What is called IC50 is the concentration at which inhibition is half-maximal. Higher therefore signals a need for much substance.

Values after ≈ are worked out from the molar mass of the structure shown.

The experiment concerns S2-007 pancreatic cancer cells. In words: Proliferation assay, Example 10. It is filed as cell-based, human. On the procedure:
In this Example, pancreatic cancer cells (S2-007 and Mia-PaCa2) were treated with the previously described compound 518B562 at different times and concentrations, followed by generation of proliferation assays using the techniques described above. […] After 72 hours of treatment, the IC50 values of the compound against S2-007 and Mia-PaCa2 cells was determined as 3 μg/mL and 5 μg/mL, respectively.

`COc1ccc2c3c([nH]c2c1)C(CC(CC1=NCCc2c1[nH]c1cc(OC)ccc21)c1ccc(O)c(OC)c1)=NCC3` [compound 562]: the IC50 (Homo sapiens, Pancreatic cancer cell, after 72 hours of treatment) was found to be 3 µg/mL (≈ 5.33 µM). Also, the inhibition of proliferation entry (doses of 1-25 μg/mL, time-dependent, 24-72 hours) is “significantly inhibited the proliferation”.
